One test has as its system AML12 cells. Briefly: Gene expression regulation in liver cells (real-time PCR). It counts as cell-based. Conditions: AML12 mouse liver cells, 1 μM alone or with 500 nM T0901317, 18 hours. As to the method:
(§1) In order to verify efficacy of the developed liver-X-receptor antagonist, the function of regulating gene expression was identified in mouse liver cells and human liver cells. In the present experiment, mouse liver cells, AML 12 cells and human liver cells, and HepG2 cells were used. AML12 cells were cultured in DMEM medium within a cell incubator with 5% carbon dioxide at 37° C. The medium contained 10% fetal bovine serum (FBS), 100 U/ml penicillin, and 100 μg/ml streptomycin. On day 1 of the experiment, AML12 cells are seeded in 6 well plates. On day 2, when the cells were grown to 80% confluency, the medium was replaced by the DMEM medium not containing serum, and then three wells per treatment group were treated with TO901317 and the developed liver-X-receptor antagonist. […] The extracted RNAs were quantified, and 1 μg of the extracted RNAs per each sample were used in cDNA synthesis. […] The cDNAs synthesized for the real-time polymerase chain reaction were mixed with primer selective for ACC1 or Actine gene and QuantiTech Master Mix (QIAGEN). […] The Ct values per each treatment group were compared with the Ct values of the negative control group, and the differences in expression amount of genes were calculated. […]
(In qPCR the cycle at which signal appears reflects the starting amount.)

In another test the test system is HepG2 cells. The description is as above. It counts as cell-based. The note with it: HepG2 human liver cells. The procedure: as §1
The next test has as its target T1, LXRβ (Homo sapiens, UniProt P55055).
T1 sequence (P55055 222-460 limits assumed): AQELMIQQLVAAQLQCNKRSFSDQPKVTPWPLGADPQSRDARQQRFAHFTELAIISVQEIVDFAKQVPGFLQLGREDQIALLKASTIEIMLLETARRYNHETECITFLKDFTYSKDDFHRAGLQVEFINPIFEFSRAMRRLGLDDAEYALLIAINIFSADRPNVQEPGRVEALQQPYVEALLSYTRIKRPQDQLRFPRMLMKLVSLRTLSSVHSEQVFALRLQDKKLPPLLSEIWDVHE
Briefly: LXR antagonistic activity, GAL-hLXR luciferase transfection assay in CV-1 cells. It counts as cell-based. The note with it: antagonism, together with agonist TO901317 (2.5 μM), 24 hours. The procedure: (§2) Animal cell line CV-1 was used in transfection search. Cells were cultured in DMEM medium within a cell culture device containing 5% carbon dioxide at 37° C. The medium contained 10% FBS (fetal bovine serum), 100 U/ml penicillin, and 100 μg/ml streptomycin. On day 1 of the experiment, CV 1 cells were seeded in 96 well plates at 5,000 cells/well. On day 2, the seeded cells were transfected with plasmid expressing GAL-hLXR, plasmid expressing Luciferase gene, and plasmid expressing β-galactocidase by using a transfection reagent, Superfect (QIAGEN). After 16 hours, the transfected cells were treated with the compound 1 dissolved in dimethylsulfoxide (DMSO) by the concentrations, together with the agonist, TO901317 (2.5 μM). Cells treated with dimethylsulfoxide having the final concentration of 1% were used as a negative control group, and cells treated with T0901317 having the final concentration of 500 nM were used as a positive control group. The cells were cultured for 24 hours, and lysed by using a lysis buffer. […] The β-galactosidase activity, after adding of an ONPG reagent, was measured using an ELISA reader. The measured Luciferase value was corrected by activity value of β-galactosidase. […] In addition, the activities on various nuclear receptors were measured by using the same method, in order to measure selectivity for various nuclear receptors.

The target in the next test is T2, LXRα (Homo sapiens, UniProt Q13133).
T2 sequence (Q13133 209-447 limits assumed): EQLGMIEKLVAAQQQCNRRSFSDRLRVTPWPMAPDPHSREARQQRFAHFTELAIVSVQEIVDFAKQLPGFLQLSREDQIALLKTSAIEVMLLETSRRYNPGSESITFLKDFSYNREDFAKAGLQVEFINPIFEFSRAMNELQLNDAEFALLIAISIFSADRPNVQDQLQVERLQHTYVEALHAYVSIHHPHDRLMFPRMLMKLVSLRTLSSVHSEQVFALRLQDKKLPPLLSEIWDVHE
The test is described as above. Type of test: cell-based. The note with it: antagonism, together with agonist TO901317 (2.5 μM), 24 hours. The procedure:
as §2

The test system of another test is 3T3-L1 cells. Briefly: Adipocyte differentiation inhibitory ability in 3T3-L1 cells. It counts as cell-based.
Another test has as its system LXR protein. Briefly: Biacore direct binding experiment. (In general: Surface plasmon resonance follows binding to a sensor surface in real time, without labels.)

The IC50 is the concentration at which inhibition is half-maximal. Lower therefore signals inhibition by little substance. For `CC(C)=CCC/C(C)=C/[C@H]1CC(C)=C[C@@]2(C=C(CO)[C@@H]3CC(=O)C(C)=C[C@@H]3O2)O1` [Compound 1], the “expression of fatty acid biosynthesis genes SREBP1c, ACC, and FAS” value in the test with AML12 cells and in the test on HepG2 cells was “inhibited the expression” throughout. For the same molecule, the IC50 at LXRβ was found to be 20.4 nM; at LXRα it was 18.7 nM. Further, the “adipocyte differentiation inhibitory ability” value in the test with 3T3-L1 cells is recorded as “very superior adipocyte differentiation inhibitory ability”. Further, the “direct binding with the LXR protein” value in the test with LXR protein is given as “directly bound”.

Source of the values: patent US8703813B2, “Compound with spiro chiral carbon backbone, preparation method thereof, and pharmaceutical composition containing the same” (SNU R & DB Foundation, priority 2008, dated 2014).
